From patent US8114393B2, “Methods and compositions for phosphate binding” (Wisconsin Alumni Research Foundation, priority 2005, dated 2012)

What was measured:
[1] = system: Intestinal Phosphate Absorption; assay: Intestinal phosphate absorption: oral 33P dose after gavage of phosphate binder; assay type: in vivo, rats; details: for amount of 33P remaining in the digestive tract compared with water (FIG. 3A) / serum 33P levels compared with water (FIG. 3B): 10 mg calcium, 14.4 mg Renagel or novel binder (Table 1); for binding / absorption of an oral 33P dose (summary): administered orally in rats; for 33P remaining in the intestine compared to Renagel, dose response study (FIG. 4A) / serum 33P levels compared to Renagel, dose response study (FIG. 4B): two highest levels of DAB-8 and DAB-16, highest level of DAB-64, vs 14.4 mg Renagel
Procedure: (§1) Animals. Male Sprague-Dawley rats (Harlan Sprague-Dawley, Madison, Wis.) weighing approximately 120 grams were used in all experiments.
In experiments to measure ^33P absorption, the rats were fed a laboratory chow diet (Lab Diet 5012, Richmond, Ind.) containing 1% calcium and 0.7% phosphorus ad libitum for less than one week prior to the experiment.
Intestinal Phosphate Absorption. Following an overnight fast, rats were administered 0.5 mL water or an oral phosphate binder dissolved in water via gastric gavage. A second dose of 0.5 mL containing 3 μCi ^33P (as H3PO4, specific activity 155.8 Ci/mg, New England Nuclear/Perkin Elmer, Boston, Mass.) in a 10, 50, or 100 mM KH2PO4 buffer at pH 7.4 was immediately administered via gastric gavage. Rats were killed by CO2 asphyxiation immediately or 60 minutes after the oral dose. The rats killed immediately (labeled “0 min control” in figures) were used to determine if the oral ^33P dose was properly administered and completely recovered.
Blood was collected via heart puncture and centrifuged at 1500×g for 15 minutes at 22° C. to yield serum. A suture was tied to the cranial end of the esophagus to contain liquid inside the stomach. The entire digestive tract was then removed and allowed to dissolve for several days in concentrated HNO3 (approximately 1 mL HNO3 per gram tissue). The exact volume of the dissolved digestive tract was determined by diluting the dissolved tissues to equal volumes with water.
The amount of radioactivity in total body serum and total volume of dissolved tissue was determined following liquid scintillation counting of 50 μL aliquots in triplicate (Tri-Carb Liquid Scintillation Analyzer, Perkin-Elmer/Packard, Boston, Mass.). Total body serum was estimated to be 40 mL serum/kg body weight. (Hawk T et al., 1999, Formulary for laboratory animals, Ames, Iowa: Iowa State University Press.)
(§2) Statistical analysis. Data are presented as means±standard error of the means (SEM). Treatment groups were compared by a fully factorial analysis of variance (ANOVA) and means were subjected to Tukey, Scheffe, and Fisher's Least-Significant-Difference (LSD) tests (Systat 5.2.1, Systat Software, Inc., Point Richmond, Calif.). Differences were considered significant if at least two of the tests detected significance with a p-value <0.05, unless specified otherwise.
Materials and Methods. The relevant materials and methods were the same as set forth above except that instead of using “0.5 mL of water or 39.5 mg calcium acetate, 14.4 mg RENAGEL, or up to 132.8 mg of test dendrimer,” the following was used “0.5 mL of water, 14.4 mg RENAGEL or 10 mg DAB-8 as the hydroacetate or hydrocitrate form dissolved in water.”

[2] = system: rats; assay: Oral tolerability of DAB dendrimers fed in the diet; assay type: in vivo; details: as hydrochlorides; for tolerability in rats: 0.15% of the diet; for tolerability in rats, observation: 0.3% or 0.6% of the diet, after 5 days (data not shown)
From the text: Unfortunately, little is known regarding the toxicity of DAB dendrimers when administered orally. Previous research has shown DAB dendrimers to be cytotoxic in vitro (Duncan R et al., Dendrimer biocompatibility and toxicity, Adv Drug Deliv Rev 2005, 57:2215-2237) and when administered intravenously, the DAB dendrimers are lethal. (Schatzlein A G et al., Preferential liver gene expression with polypropylenimine dendrimers, J Control Release 2005, 101:247-258). In our experiments, however, the DAB dendrimers were well tolerated by rats when administered orally.

[3] = system: Intestinal Phosphate Absorption; assay: Fecal calcium and phosphorus measurements, binder in purified diet; assay type: in vivo, rats; details: for mg P per gram feces: 48 h fecal collection, mean ± SEM, control 3.79 ± 0.18; for fecal phosphorus levels versus control diet or diet with 0.15% Renagel / increase in fecal phosphorus versus the increase from excess calcium or an equivalent amount of Renagel: 0.15% of diet; for fecal phosphorus levels versus control diet or diet with 0.15% Renagel: DAB-8 and DAB-16 significant by Fisher's LSD test only; for increase in fecal phosphorus versus the increase from excess calcium or an equivalent amount of Renagel: Fisher's LSD test only
From the text: as §1
In experiments to measure fecal calcium and phosphorus levels, rats were fed purified diet described previously for 9 days. (Suda T et al., Biological activity of 25-hydroxyergocalciferol in rats, J Nutr 1970, 100:1049-1052). This diet was mixed with egg white protein (Harlan Teklad, Madison, Wis.) and contained 0.20% inorganic phosphorus and 0.47% calcium. The purified diet was supplemented with 100 μL soybean oil (Wesson oil, ConAgra Foods, Irvine, Calif.) containing 500 μg α-tocopherol, 60 μg menadione, 40 μg β-carotene, and 1.875 μg cholecalciferol three times each week.
Fecal calcium and phosphorus measurements. Rats were fed the purified diet described above or the same diet with 1.2% calcium, 0.15% Renagel®, or 0.15% DAB-4, DAB-8, or DAB-16 for 7 days. Rats were then moved to metabolic cages and fecal matter was collected for 48 hours. Fecal samples were frozen, lyophilized, and heated to over 600° C. overnight in a muffle oven. Remaining ash was then dissolved overnight in 25 mL 6 N HCl. The calcium concentration of the acid was determined by flame atomic absorption spectroscopy (Model 3110, Perkin Elmer, Norwalk, Conn.) using an aliquot of the dissolved ash diluted 1:40 with 1 g/L LaCl3. The phosphorus concentration of an aliquot of the dissolved ash was determined by a colorimetric assay described previously. (Itaya K et al., A new micromethod for the colorimetric determination of inorganic phosphate, Clin Chim Acta 1966, 14:361-366).
as §2

[4] = 14.4 mg Renagel or 10 mg DAB-8 as acetate or citrate, 10 mM KH2PO4, 60 min
[5] = 10 mM KH2PO4, 60 min, listed as DAB-16-Cl

Compound: Cl.Cl.Cl.Cl.Cl.Cl.NCCCN(CCCN)CCCCN(CCCN)CCCN [DAB-4, polypropylenimine tetraamine Dendrimer perhydrochloride]
- amount of 33P remaining in the digestive tract compared with water (FIG. 3A) ([1]; 10 mM KH2PO4, 60 min): significantly increased
- serum 33P levels compared with water (FIG. 3B) ([1]; 10 mM KH2PO4, 60 min): significantly reduced
- tolerability in rats [2]: tolerated
- tolerability in rats, observation [2]: only softened stool was observed
- mg P per gram feces ([3]; 0.15% of diet for 7 days): 4.30 ± 0.13 mg P per gram feces
- fecal phosphorus levels versus control diet or diet with 0.15% Renagel [3]: increased, though not significantly

Compound: Cl.Cl.N[C@@H]1CO[C@@H]2[C@H]1OC[C@H]2N [FC, 1,4:3,6-Dianhydro-2,5-diamino-2,5-dideoxy-D-iditol dihydrochloride]
- amount of 33P remaining in the digestive tract compared with water (FIG. 3A) ([1]; 10 mM KH2PO4, 60 min): did not affect
- serum 33P levels compared with water (FIG. 3B) ([1]; 10 mM KH2PO4, 60 min): slight, but significant, decrease
- binding / absorption of an oral 33P dose (summary) [1]: does not appear to bind

Compound: Cl.Cl.Cl.Cl.NC[C@@H](N)[C@@H](N)CN [KB-54, erythro-1,2,3,4-tetraminobutane tetrahydrochloride]
- amount of 33P remaining in the digestive tract compared with water (FIG. 3A) ([1]; 10 mM KH2PO4, 60 min): significantly increased
- serum 33P levels compared with water (FIG. 3B) ([1]; 10 mM KH2PO4, 60 min): significantly reduced
- binding / absorption of an oral 33P dose (summary) [1]: reduced the absorption

Compound: CC(=O)[O-].CC(=O)[O-].[Ca+2] [calcium, Calcium acetate, reference compound]
- amount of 33P remaining in the digestive tract compared with water (FIG. 3A) ([1]; 10 mM KH2PO4, 60 min): significantly increased
- serum 33P levels compared with water (FIG. 3B) ([1]; 10 mM KH2PO4, 60 min): significantly reduced
- 33P remaining in the intestine after 60 minutes compared with water (FIG. 2A) ([1]; 20 mg calcium (as calcium acetate) or 14.4 mg Renagel by gavage, 33P in 10, 50 or 100 mM KH2PO4, fasted rats): significantly more
- 33P bound in the intestine compared with 14.4 mg Renagel (FIG. 2A) ([1]; 20 mg calcium, difference significant in 10 or 100 mM phosphate, 60 min): bound more ^33P in the intestine
- serum 33P levels compared with water (FIG. 2B) ([1]; calcium (printed 10 mg) or 14.4 mg Renagel, 10, 50 or 100 mM KH2PO4, 60 min): significant decrease
- mg P per gram feces ([3]; 1.20% Ca diet for 7 days): 4.39 ± 0.23 mg P per gram feces
- fecal phosphorus versus control diet ([3]; 1.20% calcium diet): increased, though not significantly

Compound: DAB-Am-8, Polypropylenimine octaamine Dendrimer citrate (Generation 2.0) [DAB-8 as citrate]
- 33P in the serum compared with vehicle pretreatment (FIG. 26) [1, 4]: significantly less
- 33P retained in the gut compared with vehicle pretreatment (FIG. 25) [1, 4]: significantly more

Compound: Polypropylenimine hexadecaamine Dendrimer perhydrochloride [DAB-16]
- 33P retained in the digestive tract versus DAB-4 at an equivalent amount of free amino groups (FIG. 5A) ([1]; 10 mM KH2PO4, 60 min): bound significantly more
- 33P retained in the digestive tract versus DAB-8 at equimolar amounts (FIG. 5A) ([1]; 10 mM KH2PO4, 60 min): retained significantly more
- amount of 33P remaining in the digestive tract compared to a comparable amount of Renagel (FIG. 3A) ([1]; 10 mM KH2PO4, 60 min): bound significantly more
- serum 33P levels compared to a comparable amount of Renagel (FIG. 3B) ([1]; 10 mM KH2PO4, 60 min): significantly reduced
- 33P retained in the digestive tract versus DAB-8 at equimolar amounts (FIG. 5A) [1, 5]: significantly more
- amount of 33P remaining in the digestive tract compared to a comparable amount of Renagel (FIG. 3A) [1, 5]: significantly increased
- amount of 33P remaining in the digestive tract compared with water (FIG. 3A) ([1]; 10 mM KH2PO4, 60 min): significantly increased
- serum 33P levels compared with water (FIG. 3B) ([1]; 10 mM KH2PO4, 60 min): significantly reduced
- serum 33P levels compared with water, mechanism study (FIG. 5B) ([1]; 13.9 mg, the only level of binder with significant effect): significantly reduce
- 33P remaining in the intestine compared to Renagel, dose response study (FIG. 4A) [1]: significantly increased
- serum 33P levels compared to Renagel, dose response study (FIG. 4B) [1]: significantly reduced
- tolerability in rats [2]: tolerated
- tolerability in rats, observation [2]: only softened stool was observed
- mg P per gram feces ([3]; 0.15% of diet for 7 days): 4.78 ± 0.30 mg P per gram feces
- fecal phosphorus levels versus control diet or diet with 0.15% Renagel [3]: significantly increased
- increase in fecal phosphorus versus the increase from excess calcium or an equivalent amount of Renagel [3]: significantly higher

Compound: Polypropylenimine tetrahexacontaamine Dendrimer perhydrochloride [DAB-64]
- amount of 33P remaining in the digestive tract compared with water (FIG. 3A) ([1]; 10 mM KH2PO4, 60 min): significantly increased
- serum 33P levels compared with water (FIG. 3B) ([1]; 10 mM KH2PO4, 60 min): significantly reduced
- 33P remaining in the intestine compared to Renagel, dose response study (FIG. 4A) [1]: significantly increased
- serum 33P levels compared to Renagel, dose response study (FIG. 4B) [1]: significantly reduced

Compound: polypropylenimine octaamine Dendrimer perhydrochloride [DAB-8]
- amount of 33P remaining in the digestive tract compared to a comparable amount of Renagel (FIG. 3A) ([1]; 10 mM KH2PO4, 60 min): bound significantly more
- serum 33P levels compared to a comparable amount of Renagel (FIG. 3B) ([1]; 10 mM KH2PO4, 60 min): significantly reduced
- amount of 33P remaining in the digestive tract compared to a comparable amount of Renagel (FIG. 3A) ([1]; 10 mM KH2PO4, 60 min, listed as DAB-8-Cl): significantly increased
- amount of 33P remaining in the digestive tract compared with water (FIG. 3A) ([1]; 10 mM KH2PO4, 60 min): significantly increased
- serum 33P levels compared with water (FIG. 3B) ([1]; 10 mM KH2PO4, 60 min): significantly reduced
- 33P remaining in the intestine compared to Renagel, dose response study (FIG. 4A) [1]: significantly increased
- serum 33P levels compared to Renagel, dose response study (FIG. 4B) [1]: significantly reduced
- tolerability in rats [2]: tolerated
- tolerability in rats, observation [2]: only softened stool was observed
- mg P per gram feces ([3]; 0.15% of diet for 7 days): 4.71 ± 0.53 mg P per gram feces
- fecal phosphorus levels versus control diet or diet with 0.15% Renagel [3]: significantly increased
- increase in fecal phosphorus versus the increase from excess calcium or an equivalent amount of Renagel [3]: significantly higher
